Here are results for one compound from paper PMC12169104, “Towards the development of supramolecular self-associating amphiphiles as antibiofilm agents against Pseudomonas aeruginosa and Candida albicans biofilms” (Journal of Materials Chemistry. B, 2025).

Broadly, the efflux ratio is a quotient of directional permeabilities that is used to spot active efflux. Broadly, the Papp A→B is how fast a substance crosses the layer from the apical side. A high value points to fast passage. For orientation: Papp B→A means the apparent permeability from the basolateral to the apical side of a cell layer. In general, solubility refers to how much of the substance goes into solution per volume. A higher solubility goes with a readily soluble substance.

Structures are written as SMILES. In brackets after ≈: the same amount, converted by molar mass. Like-named read-outs stand apart in the source and are kept apart here.

Series [1] is described as follows: Bi-directional permeability in Caco-2 cell line. Format: in vitro ADME. Conditions: human; for recovery at 2 h, 5 µM: Caco-2, pH 7.4, SSA recovered from the assay after 2 hours. The protocol:
Bi-directional Permeability in Caco-2 Cell Line:
The bi-directional permeability in Caco-2 cell lines was determined by seeding cells onto an HTS Transwell plate. Cells were cultivated for 14-18 days in a cell culture incubator at 37°C, 5% CO2, 95% relative humidity. Cell culture medium was replaced every other day. To assess monolayer integrity the transepithelial electrical resistance (TEER) across the monolayer was measured using Millicell Epithelial volt-ohm meter prior to assay and Lucifer yellow (LY) fluorescence measurement post- […]
Test compound was prepared in DMSO and diluted in Hank’s Balanced Saline Solution (HBSS, pH 7.4) to a final concentration of 5 µM. Compound was added to the donor compartment of the transwell plate for both apical to basolateral (A>B) and basolateral to apical (B>A) measurements, with blank HBSS being added to the receiver compartment. The transwell plate was then incubated at 37°C, 5% […]
Samples were shaken at T=0 and T=2 hours to determine the concentration of initial donor sample, and the concentration of receiver and donor wells post-incubation, respectively. The samples were quenched with solvent containing internal standard (IS). The supernatant was mixed with an appropriate volume of ultra-pure water before LC-MS/MS analysis. […]
coupled to a Sciex 5500+ (AB Inc., Illinois). Separation of compounds was achieved using an XSelect HSS T3 XP (2.5µm,2.1x50mm) (Waters Ltd., Wilmslow) column at a temperature of 40°C. A binary mobile phase gradient at a flow rate of 0.7 mL/min was used. Initial LC conditions comprised of 95% solvent A (0.1% formic acid in water) and 5% solvent B (0.1% formic acid in acetonitrile). This was ramped to 95% solvent B at 1.2 minutes, held for 0.4 minutes and then immediately returned to initial conditions. Sample analysis was by electrospray ionisation combined with multiple reaction monitoring in positive ion mode. The ionspray voltage was 5500V.
On the technique in general: Caco-2 monolayers are a common model of the intestinal barrier.

Series [2] in a line: Metabolic stability in liver microsomes. Format: in vitro ADME, human. As for the experimental part:
(§1) Section S5: In vitro and in vivo studies
(§2) These studies were performed by Contract Research Organisation (CRO) Pharmaron. The methodology provided within the ESI is published within the express permission of this organisation.
(§3) The percentage of a compound recovered during the analysis process should be 100 %; any deviation from this value indicates experimental limitations such as unintended potential non-specific binding events to experimental equipment, solubility issues, etc.
(§4) In vitro Absorption, Distribution and Metabolism studies methods: […]
(§5) The ionisation
(§6) Kinetic Solubility Determination in PBS pH 7.4:
The stock solutions of test and control compounds were prepared in DMSO at 10 mM. From this a 300 µM solution was prepared in duplicate in 100 mM Phosphate Buffered Saline (PBS, pH 7.4 ± 0.1). These solutions were then shaken at 1100rpm for 2 hours at 25°C. […]
Metabolic Stability in Rat, Mouse and Human Liver Microsomes :
The metabolic stability of compounds at a concentration of 1 µM, in rat, mouse and human liver microsomes (BD Gentest, Franklin Lakes NJ) was measured following incubation with hepatic microsomes (0.5 mg of protein / mL) in the presence and absence of cofa ctor (NADPH) at 37 °C.
Aliquots of each incubation were removed at 0.5, 5, 15, 30 and 60 minutes. The reaction was stopped by the addition of cold acetonitrile containing analytical internal standard (IS). […]
(Liver microsomes are a subcellular fraction often used to study metabolism.)

Series [3] in a line: Kinetic solubility determination in PBS pH 7.4. Format: physicochemical. The following applies: phosphate buffered saline, aqueous buffer, kinetic from dmso stock, PBS pH 7.4, 300 µM nominal, 2 hours at 25°C. The protocol: as §1, §2, §3, §4, §5, §6
The stock solutions of test and control compounds were prepared in DMSO at 10 mM. From this a 300 µM solution was prepared in duplicate in 100 mM Phosphate Buffered Saline (PBS, pH 7.4 ± 0.1). These solutions were then shaken at 1100rpm for 2 hours at 25°C. Following incubation, the samples were filtered using a vacuum manifold. The filtrate was analysed and quantified against a standard of known concentration using liquid chromatography mass -spectrometry (LC -MS/MS). […]
coupled to a Sciex 4500 mass spectrometer (AB Inc., Illinois) Separation of compounds was achieved using an XSelect HSS T3 column (2.5µm, 50 x 2.1 mm) (Waters Ltd., Wilmslow) at a temperature of 40°C and a binary mobile phase gradient at a flow rate of 0.8 mL/min. […]

On to `O=C(O)CNc1c(Nc2ccc(C(F)(F)F)cc2)c(=O)c1=O` [SSA 5], for which the efflux ratio at 2 h, 5 µM in series [1] (Caco-2, pH 7.4) is over 73.9. The recovery at 2 h, 5 µM in series [1] (read-out: % Recovery (A-B)) is under 98.4%; in series [1] (read-out: % Recovery (B-A)), 82.6%. Moreover, in series [1] (Caco-2, pH 7.4, apical to basolateral, 5 µM, 2 hours), the Papp A→B at 2 h, 5 µM is under 0.06 ×10⁻⁶ cm/s. The compound further registered a Papp B→A at 2 h, 5 µM in series [1] (Caco-2, pH 7.4, basolateral to apical, 5 µM, 2 hours) of 4.24 ×10⁻⁶ cm/s. In series [2] (human), the “Hepatic Extraction Ratio (ER)” value is reported as under 0.27. Further, the half-life at 1 µM in series [2] (liver microsomes, human microsomes, 1 µM, read-out: In vitro T1/2) was over 3.08 h. This compound also registered a solubility at 2 h in series [3] of 273 µM (≈ 85.8 µg/mL).
